Experimental data: patent publication US20160030407A1, “Method of Treating Inflammatory Lung Disease” (priority 2010, published 2016)
Several values for one entry are separate records, joined by “and”; a condition that tells them apart may be missing. Identical values can stand only once.

Assay: Plasma pharmacokinetics after oral multi-dose anatabine polacrilex
Format: in vivo, Sprague-Dawley rats
Details: for Anatabine Concentration in rat plasma: dose 0.2 mg/kg, male, individual animals
Description: This study consisted of two groups of 8 animals each, 4 males and 4 females.
The vehicle was sterile phosphate buffered saline (PBS) (Amresco). […] Two formulations were prepared; one for each of the two treatment groups. The test compound was formulated for each treatment group just prior to the first dose administration and constantly stirred until dosing was completed (Table 37). Four aliquots of each dose level formulation were collected and stored at −80° C.
The animals were weighed prior to dosing and received three doses p.o. of test compound at a volume of 5 mL/kg. Blood was collected via the venus plexus (retro-orbital) into tubes containing (K2) EDTA. No more than 0.5 mL was collected per time point.
Sample preparation. Plasma samples were treated with three volumes of methanol containing internal standard at 1 μM (R,S)-Antabine-2,4,5,6-d4), incubated 10 min at 4° C., and centrifuged. The amount of the test agent in the supernatant was determined by LC/MS/MS.
Analysis. Samples were analyzed by LC/MS/MS using an Agilent 6410 mass spectrometer coupled with an Agilent 1200 high pressure liquid chromatography (HPLC) and a CTC PAL chilled autosampler, all controlled by MassHunter software (Agilent). After separation on a Hydrophilic interaction liquid chromatography (HILIC) HPLC column (Sepax) using an acetonitrile-ammonium acetate/acetic acid gradient system, peaks were analyzed by mass spectrometry (MS) using ESI ionization in multiple reaction monitoring (MRM) mode. MassHunter software was used to calculate the concentration of the test compounds in samples from the peak area using the appropriate calibration curves.
Descriptive statistics were calculated for all pharmacokinetic parameters. Elimination half-lives (t1/2) were calculated by linear regression of logarithmically transformed plasma concentration data for each period between doses and following the final dose.
Total areas under the plasma concentration curves (AUC) and under the first moment curves (AUMC) were calculated using linear trapezoidal summation across all concentration time points as well as for intervals between each dose administration and following the final dose. […] Mean absorption times (MAT) were calculated according to the following relation: […]

[1] = Anatabine 0.6 mg/kg, female rats, mean
[2] = Anatabine 0.6 mg/kg, male and female combined, mean
[3] = Anatabine 0.6 mg/kg, male rats, mean
[4] = Anatabine 6.0 mg/kg, female rats, mean
[5] = Anatabine 6.0 mg/kg, male and female combined, mean
[6] = Anatabine 6.0 mg/kg, male rats, mean
[7] = all data combined (overall), mean
[8] = both treatment groups combined, female rats, mean
[9] = females, 6.0 mg/kg BW group (3 x 2.0 mg/kg p.o.)

SMILES: C1=CCC(c2cccnc2)NC1 (racemic) [Anatabine, 1,2,3,6-tetrahydro-[2,3′]bipyridinyl]
- AUC0→∞ [1]: 290 ng·h/mL
- MAT0→4 (mean absorption time) [1]: 0.53 h
- t1/2, 0→4 (elimination half-life after first dose) [1]: 2.06 h
- t1/2, terminal [1]: 1.80 h
- MAT0→4 (mean absorption time) [2]: 0.61 h
- MTT0→4 (mean transit time) [2]: 3.06 h
- AUC0→∞ [3]: 280 ng·h/mL
- MAT0→4 (mean absorption time) [3]: 0.71 h
- t1/2, terminal [3]: 1.78 h
- Cp, max (1) (Anatabine 6.0 mg/kg, female rats, after dose 1, mean): 260 ng/mL
- MAT0→4 (mean absorption time) [4]: 0.30 h
- t1/2, 0→4 (elimination half-life after first dose) [4]: 1.82 h
- MAT0→4 (mean absorption time) [5]: 0.52 h
- MTT0→4 (mean transit time) [5]: 2.97 h
- MAT0→4 (mean absorption time) [6]: 0.73 h
- t1/2, 0→4 (elimination half-life after first dose) [6]: 1.76 h
- concentration at 30 min (Sprague-Dawley, rat, plasma, oral, 2 mg/kg BW, dose group 2, female, 30 min, mean): 160 ng/mL
- concentration at 60 min (Sprague-Dawley, rat, plasma, oral, 2 mg/kg BW, dose group 2, female, 60 min, mean): 129 ng/mL
- concentration at 235 min (Sprague-Dawley, rat, plasma, oral, 2 mg/kg BW, dose group 2, female, 235 min, mean): 44 ng/mL
- concentration at 270 min (Sprague-Dawley, rat, plasma, oral, 2 mg/kg BW, dose group 2, female, 270 min, mean): 316 ng/mL
- concentration at 300 min (Sprague-Dawley, rat, plasma, oral, 2 mg/kg BW, dose group 2, female, 300 min, mean): 234 ng/mL
- concentration at 475 min (Sprague-Dawley, rat, plasma, oral, 2 mg/kg BW, dose group 2, female, 475 min, mean): 192 ng/mL
- concentration at 540 min (Sprague-Dawley, rat, plasma, oral, 2 mg/kg BW, dose group 2, female, 540 min, mean): 386 ng/mL
- concentration at 600 min (Sprague-Dawley, rat, plasma, oral, 2 mg/kg BW, dose group 2, female, 600 min, mean): 325 ng/mL
- concentration at 720 min (Sprague-Dawley, rat, plasma, oral, 2 mg/kg BW, dose group 2, female, 720 min, mean): 208 ng/mL
- MAT0→4 (mean absorption time) [7]: 0.56 h
- MTT0→4 (mean transit time) [7]: 3.01 h
- t1/2, 0→4 (elimination half-life after first dose) [7]: 1.93 h
- MAT0→4 (mean absorption time) [8]: 0.42 h
- MTT0→4 (mean transit time) [8]: 2.87 h
- t1/2, 0→4 (elimination half-life after first dose) [8]: 1.94 h
- MAT0→4 (mean absorption time) (both treatment groups combined, male rats, mean): 0.72 h
- Anatabine Concentration in rat plasma (30 min): <LOQ
- Anatabine Concentration in rat plasma (235 min): <LOQ
- Anatabine Concentration in rat plasma (475 min): <LOQ
- Anatabine Concentration in rat plasma (600 min): <LOQ
- Anatabine Concentration in rat plasma (720 min): <LOQ
- Avg. Conc. of Anatabine in plasma (dose group 0.2, combined male and female, 30 min, mean): 36 ng/mL
- Avg. Conc. of Anatabine in plasma (dose group 0.2, combined male and female, 60 min, mean): 31 ng/mL
- Avg. Conc. of Anatabine in plasma (dose group 0.2, combined male and female, 235 min, mean): 10 ng/mL
- Avg. Conc. of Anatabine in plasma (dose group 0.2, combined male and female, 270 min, mean): 26 ng/mL
- Avg. Conc. of Anatabine in plasma (dose group 0.2, combined male and female, 300 min, mean): 27 ng/mL
- Avg. Conc. of Anatabine in plasma (dose group 0.2, combined male and female, 475 min, mean): 11 ng/mL
- Avg. Conc. of Anatabine in plasma (dose group 0.2, combined male and female, 540 min, mean): 30 ng/mL
- Avg. Conc. of Anatabine in plasma (dose group 0.2, combined male and female, 600 min, mean): 26 ng/mL
- Avg. Conc. of Anatabine in plasma (dose group 0.2, combined male and female, 720 min, mean): 13 ng/mL
- Avg. Conc. of Anatabine in plasma (dose group 0.2, female, 30 min, mean): 37 ng/mL
- Avg. Conc. of Anatabine in plasma (dose group 0.2, female, 60 min, mean): 35 ng/mL
- Avg. Conc. of Anatabine in plasma (dose group 0.2, female, 235 min, mean): 12 ng/mL
- Avg. Conc. of Anatabine in plasma (dose group 0.2, female, 270 min, mean): 26 ng/mL
- Avg. Conc. of Anatabine in plasma (dose group 0.2, female, 300 min, mean): 34 ng/mL
- Avg. Conc. of Anatabine in plasma (dose group 0.2, female, 475 min, mean): 8 ng/mL
- Avg. Conc. of Anatabine in plasma (dose group 0.2, female, 540 min, mean): 34 ng/mL
- Avg. Conc. of Anatabine in plasma (dose group 0.2, female, 600 min, mean): 28 ng/mL
- Avg. Conc. of Anatabine in plasma (dose group 0.2, female, 720 min, mean): 12 ng/mL
- Avg. Conc. of Anatabine in plasma (dose group 0.2, male, 30 min, mean): 33 ng/mL
- Avg. Conc. of Anatabine in plasma (dose group 0.2, male, 60 min, mean): 30 ng/mL
- Avg. Conc. of Anatabine in plasma (dose group 0.2, male, 235 min, mean): 11 ng/mL
- Avg. Conc. of Anatabine in plasma (dose group 0.2, male, 270 min, mean): 26 ng/mL
- Avg. Conc. of Anatabine in plasma (dose group 0.2, male, 300 min, mean): 26 ng/mL
- Avg. Conc. of Anatabine in plasma (dose group 0.2, male, 475 min, mean): 18 ng/mL
- Avg. Conc. of Anatabine in plasma (dose group 0.2, male, 540 min, mean): 38 ng/mL
- Avg. Conc. of Anatabine in plasma (dose group 0.2, male, 600 min, mean): 29 ng/mL
- Avg. Conc. of Anatabine in plasma (dose group 0.2, male, 720 min, mean): 12 ng/mL
- Avg. Conc. of Anatabine in plasma (dose group 2, combined male and female, 30 min, mean): 201 ng/mL
- Avg. Conc. of Anatabine in plasma (dose group 2, combined male and female, 60 min, mean): 139 ng/mL
- Avg. Conc. of Anatabine in plasma (dose group 2, combined male and female, 235 min, mean): 63 ng/mL
- Avg. Conc. of Anatabine in plasma (dose group 2, combined male and female, 300 min, mean): 222 ng/mL
- Avg. Conc. of Anatabine in plasma (dose group 2, combined male and female, 600 min, mean): 237 ng/mL
- Avg. Conc. of Anatabine in plasma (dose group 2, combined male and female, 720 min, mean): 194 ng/mL
- Avg. Conc. of Anatabine in plasma (dose group 2, male, 30 min, mean): 243 ng/mL
- Avg. Conc. of Anatabine in plasma (dose group 2, male, 60 min, mean): 165 ng/mL
- Avg. Conc. of Anatabine in plasma (dose group 2, male, 235 min, mean): 72 ng/mL
- Avg. Conc. of Anatabine in plasma (dose group 2, male, 270 min, mean): 303 ng/mL
- Avg. Conc. of Anatabine in plasma (dose group 2, male, 300 min, mean): 183 ng/mL
- Avg. Conc. of Anatabine in plasma (dose group 2, male, 475 min, mean): 97 ng/mL
- Avg. Conc. of Anatabine in plasma (dose group 2, male, 540 min, mean): 226 ng/mL
- Avg. Conc. of Anatabine in plasma (dose group 2, male, 600 min, mean): 151 ng/mL
- Avg. Conc. of Anatabine in plasma (dose group 2, male, 720 min, mean): 203 ng/mL
- Cp, max, final value [9]: 374.8 ± 122.9 ng/mL
- Cp, max, initial value [9]: 259.8 ± 35.4 ng/mL
- Cp, min(2) (females, 6.0 mg/kg BW group, 6 mg/kg): 180 ± 31 ng/mL and 180.0 ± 30.7 ng/mL
